Entries after “also recorded” stand apart in the source; their conditions may differ.
Key:
subcutaneous C6 tumor = test: In vivo and ex vivo fluorescence imaging of apoptosis in C6 tumor-bearing mice
Protocol: Only apoptotic tumors were clearly visualized.
Subcutaneous C6 tumor-bearing mice with and without intravenous injection of STS were imaged for 30 min using an IVIS spectrum imaging system. […] In contrast, the fluorescence signals from the tumor-bearing animals without treatment of STS and normal tissues are very weak. […] Additionally, the fluorescence changes in tumoral and normal tissues as a function of time for each experiment are shown in FIG. 50b. A 3-fold fluorescence enhancement of the apoptotic tumoral tissues relative to normal tissues is observed as early as 5 min after injection of Ac-DEVD-PyTPE, but only a slight fluorescence increase is observed over 15 min.
FIG. 50c show IVIS spectrum analysis of apoptotic and non-apoptotic tumors that were excised immediately after in vivo imaging.

[1] = tested on: caspase-3 activity in MCF-7 cells; test: CLSM imaging of caspase-3 activity / apoptosis in MCF-7 cells; format: cell-based
Protocol: FIGS. 46a-46c show normal MCF-7 cells treated with Ac-DEVD-PyTPE (5 μM, 1% DMSO) for 2 h.
FIGS. 46d-46f show apoptotic MCF-7 cells treated with Ac-DEVD-PyTPE (5 μM, 1% DMSO) and caspase-3 antibody. STS (3 μM) was used to induce cell apoptosis. Red=probe fluorescence; Green=immunofluorescence signal generated from anti-caspase-3 primary antibody and a FITC labeled secondary antibody.
All images were acquired in the same way.
Additionally, apoptotic MCF-7 cells were treated with both Ac-DEVD-PyTPE and commercial Annexin V-Alexa Fluor.

caspase-7 = biological target: T1, caspase-7 (Homo sapiens, UniProt P55210); test: Ac-DEVD-PyTPE fluorescence turn-on assay with caspase-7; format: biochemical; conditions: caspase-7 vs pepsin, trypsin, papain, lysozyme; protein 20 μg mL^−1; λex 405 nm, λem 610 nm
T1 sequence (P55210 24-198 limits assumed): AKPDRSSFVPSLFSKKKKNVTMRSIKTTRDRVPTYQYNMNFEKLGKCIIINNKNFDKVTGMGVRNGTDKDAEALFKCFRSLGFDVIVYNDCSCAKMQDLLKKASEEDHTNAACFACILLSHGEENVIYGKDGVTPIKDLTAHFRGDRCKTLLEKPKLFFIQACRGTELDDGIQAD
T1 sequence (P55210 207-303 limits assumed): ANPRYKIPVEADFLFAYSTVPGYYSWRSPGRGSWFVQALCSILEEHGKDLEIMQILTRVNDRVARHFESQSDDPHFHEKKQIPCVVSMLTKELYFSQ
From the text: (§1) Inset: photographs taken under UV illumination. λex=405 nm; λem=610 nm.
(§2) As shown, caspase-3 and caspase-7 display respectively about 43- and 36-fold higher changes in (I−I0)/I0 than the other four enzymes.

caspase-3 = biological target: T2, caspase-3 (Homo sapiens, UniProt P42574); test: Ac-DEVD-PyTPE fluorescence turn-on assay with caspase-3 in PIPES buffer; format: biochemical
T2 sequence (P42574 29-175 limits assumed): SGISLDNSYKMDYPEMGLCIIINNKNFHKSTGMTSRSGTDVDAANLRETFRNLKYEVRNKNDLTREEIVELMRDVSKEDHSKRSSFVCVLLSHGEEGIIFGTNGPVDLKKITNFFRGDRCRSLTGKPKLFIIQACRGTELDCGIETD
T2 sequence (P42574 176-277 limits assumed): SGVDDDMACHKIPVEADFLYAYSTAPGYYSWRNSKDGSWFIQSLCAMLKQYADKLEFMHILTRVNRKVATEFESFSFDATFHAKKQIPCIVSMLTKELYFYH
Protocol: [caspase-3]=5 μg mL^−1, [Ac-DEVD-PyTPE]=10 μM.
as §1
Particles with an average diameter of 92 nm formed in addition to the increase of fluorescence in the solution (FIG. 43a). […] The caspase-3/7 catalyzed hydrolysis of Ac-DEVD-PyTPE is shown in the reaction scheme below.
In the absence of caspase-3, nearly no change in fluorescence is observed, confirming that Ac-DEVD-PyTPE is specifically recognized and cleaved by caspase-3.
as §2

[2] = Metabolic viability of MCF-7 cancer cells after incubation with probe; format: cell-based; conditions: human, 5, 10 and 20 μM for 12, 24 and 48 h, read-out: cell viability
From the text: This is indicative of the low cytotoxicity of the Ac-DEVD-PyTPE probe.

HeLa cells = test: Photobleaching under continuous laser excitation in stained HeLa cells; format: cell-based; conditions: continuous excitation 180 s, 0.6 mW; 405 nm for TPEPy-PF6, 588 nm for MitoTracker Red
C6 tumor = test: In vivo screening of apoptosis inducing agents in C6 tumor-bearing mice; conditions: treated overnight, probe injected into tumor, 15 min; compared with DMSO, cisplatin, sodium ascorbate
Protocol: C6 tumor-bearing mice were treated with several compounds, namely DMSO, STS, cisplatin (CIS), and sodium ascorbate (Na asb), overnight, and Ac-DEVD-PyTPE was subsequently injected into the tumor directly. After 15 min incubation, the mice were imaged using an IVIS spectrum imaging system.

MCF-7 cells = test: In situ screening of apoptosis inducers in MCF-7 cells with Ac-DEVD-PyTPE; format: cell-based; conditions: 3 μM in DMSO, 2 h; compared with sodium ascorbate and cisplatin
Protocol: [Ac-DEVD-PyTPE]=3 μM. All images were acquired in the same way.
Three known apoptosis inducers, sodium ascorbate, cisplatin and STS, were used to treat MCF-7 cells. After the cells were incubated with Ac-DEVD-PyTPE for 2 h, each compound (3 μM in DMSO) was added into the chamber for an additional 2 h incubation. The apoptosis-inducing capabilities of these agents were evaluated by monitoring the cell fluorescence increase with a confocal microscopy.

Solubility = conditions: for solubility in common organic solvents: THF, toluene, DCM, chloroform
[3] = Fluorescent sensing of Hg2+ in aqueous buffer and in solid film
Protocol: I0=the emission intensity at 640 nm in absence of Hg^2+. Inset: photographs of TPEBe-I in aqueous buffer with [Hg^2+] of 0 and 2.0 mM taken under 365 nm UV illumination. Solution concentration: 20 μM; excitation wavelength: 480 nm.
Black bars represent the addition of different metal ion (2 mM) to solution of the TPEBe-I. Red bars represent the subsequent addition of 2 mM Hg^2+ to the solution. λex=480 nm. λem=640 nm.
Accordingly, in one embodiment, the present subject matter relates to the use of Hg^2+ to bind to iodine ions in TPEBe-I in order to restore the emission of the cationic luminogen. […] In addition, the spectrum slightly red-shifted with increasing concentration of Hg^2+. […] When the concentration of Hg^2+ is 2.0 mM, the emission intensity of TPEBe-I is enhanced 80-fold. Moreover, the emission color also changes from dark into bright red under 365 nm UV illumination. Accordingly, another embodiment of the present subject matter relates to the use of TPEBe-I luminogens as an “off-on” sensor for Hg^2+ in aqueous solution.
In addition, the present subject matter relates to using the TPEBe-I luminogen as a fluorescent sensor for Hg^2+.
This is likely due to protons combining with iodine ions, leading to a faint increase in emission. In contrast, under basic conditions (pH≧7), TPEBe-I in the absence of Hg^2+ is weakly emissive due to the quenching effect of the iodine ions. […] The emission intensity decreases at a pH greater than 8, but is still higher than the emission intensity of TPEBe-I in the absence of Hg^2+. […] The lower emission intensity of TPEBe-I under more basic conditions is attributed to the formation of Hg(OH)2, thereby reducing the amount of free Hg^2+. In addition, the hydroxyl group (OH) in basic conditions can destroy the structure of TPEBe-I, resulting in inactivation of its sensing ability.
In another embodiment, a solid-state fluorescent probe for the detection of Hg^2+ was developed using the TPEBe-I luminogen. […] As shown, the spots of film polluted by the aqueous solution containing Hg^2+ changed to a red color with varying degrees while the untreated surrounding areas show the initial dark color. This illustrates that the solid-state film of TPEBe-I has a very sensitive response to Hg^2+ in a pure aqueous solution. Therefore, one embodiment of the present subject matter relates to the use a TPEBe-I solid-state fluorescent probe for detecting and tracking the amount of Hg^2+ in an aqueous solution. In one embodiment, the detection amount can reach 1 μM ([…]).

[4] = Fluorescent sensing of ATP in aqueous solution with 1% DMSO
Protocol: I0=PL intensity at 620 nm in absence of ATP. Inset in B: plot of (I−I0)/I0 value versus concentration of ATP from 0 to 20 μM.
I0=photoluminescence intensity at 620 nm in absence of nucleotide. Inset: Photographs of TPBBe-I in aqueous solution with 1% DMSO with various nucleotides (600 μM) taken under 365 nm UV illumination.
When the concentration of ATP is 600 μM, the emission intensity of TPEBe-I increases 20-fold. Moreover, the emission color also changes from dark into bright red under 365 nm UV illumination (FIG. 53b). […] Obviously, the value of (I−I0)/I0 has a linear relationship with ATP from 0 to 20 μM.
The fluorescence response of TPEBe-I was carried out using ATP, ADP and AMP. […] Accordingly, one embodiment relates to the use of TPEBe-I as a highly sensitive and selective fluorescent sensor for ATP.

[5] = tested on: mitochondria of HeLa cells; test: Living HeLa cell staining and co-staining with MitoTracker Red; format: cell-based; conditions: 15 min
Protocol: In a further embodiment, the present subject matter is directed to the use of the TPEPy-PF6 luminogen as a fluorescent stain for living cell imaging. Nanoaggregates of TPEPy-PF6 were prepared in minimum essential medium/DMSO mixtures and the HeLa cells were imaged using a standard cell-staining protocol. The living cells were incubated with TPEPy-PF6 (5 μM) for 15 min and then washed three times with phosphate buffered saline solution.
Living cells were incubated with both mitochondria-targeted dye MitoTracker Red (100 nM) and TPEPy-PF6 (5 μM) for 15 min at 37° C. by the above procedure. […] Therefore, one embodiment of the present subject matter relates to the use of the TPEPy-PF6 luminogen to exclusively stain the mitochondria of living cells.

[6] = excised immediately after in vivo imaging

CC(=O)N[C@@H](CC(=O)O)C(=O)N[C@@H](CCC(=O)O)C(=O)N[C@H](C(=O)N[C@@H](CC(=O)O)C(=O)N[C@@H](Cc1cn(CCCC[n+]2ccc(/C=C/c3ccc(C(=C(c4ccccc4)c4ccccc4)c4ccccc4)cc3)cc2)nn1)C(N)=O)C(C)C [Ac-DEVD-PyTPE]
fluorescence enhancement of apoptotic tumoral tissues relative to normal tissues (subcutaneous C6 tumor; STS pretreatment, 5 min after intratumoral injection of probe): 3 fold | fluorescence of excised tumor/(+)STS tissues (subcutaneous C6 tumor; [6]): high fluorescence signal | fluorescence of excised tumor/(−)STS tissues (subcutaneous C6 tumor; [6]): almost no fluorescence | probe fluorescence in normal un-induced cells ([1]; 5 μM, 1% DMSO, 2 h): extremely low fluorescence signal | probe fluorescence in STS-induced apoptotic cells ([1]; probe 5 μM, STS 3 μM): strong fluorescence signals | fold higher change in (I−I0)/I0 than the other four enzymes (caspase-7): ~36 fold | fluorescence of the probe treated with caspase-3 (caspase-3; PIPES buffer pH 7.2, caspase-3 5 μg mL^−1, probe 10 μM): strong fluorescence signals | fold higher change in (I−I0)/I0 than the other four enzymes (caspase-3; caspase-3 vs pepsin, trypsin, papain, lysozyme, protein 20 μg mL^−1, λex 405 nm, λem 610 nm): about 43 fold | viability [2]: ~100%

COC[C@@H]1CCCN1S(=O)(=O)c1ccc2c(c1)C(=O)C(=O)N2 [MPS, 5-[(S)-(+)-2-(methoxymethyl)pyrrolidino]sulfonylisatin, reference compound]
probe fluorescence in STS-induced cells pre-treated with inhibitor ([1]; inhibitor 10 μM before incubation with Ac-DEVD-PyTPE): greatly reduced | inhibition of caspase-3 cleavage of Ac-DEVD-PyTPE (fluorescence) (caspase-3; pre-treatment with inhibitor 10 μM, PIPES buffer): Most of the fluorescence was readily competed away

ClCc1ccc(C2=c3cc4c5c(c3Oc3c2cc2c6c3CCCN6CCC2)CCC[N+]=5CCC4)cc1.[Cl-] [MitoTracker Red, reference compound]
luminescence intensity remaining relative to initial value (HeLa cells): about 20%

CN[C@@H]1C[C@H]2O[C@@](C)([C@@H]1OC)n1c3ccccc3c3c4c(c5c6ccccc6n2c5c31)C(=O)NC4 [STS, staurosporine]
efficacy of apoptosis inducing agent (tumor fluorescence) (C6 tumor): strongest fluorescence | apoptosis-inducing capability (cell fluorescence increase) (MCF-7 cells): strongest fluorescence enhancement

CC[n+]1c(/C=C/c2ccc(C(=C(c3ccccc3)c3ccccc3)c3ccccc3)cc2)sc2ccccc21 [TPEBe-ClO4]
solubility in common organic solvents (Solubility): soluble | solubility in water (Solubility): insoluble | emission intensity upon addition of Hg^2+ ([3]; Hg^2+ 0-2.0 mM, pH 7.4 HEPES, 1% DMSO): also increased

CC[n+]1c(/C=C/c2ccc(C(=C(c3ccccc3)c3ccccc3)c3ccccc3)cc2)sc2ccccc21 [TPEBe-I]
emission intensity increase ([4]; ATP 600 μM, luminogen 20 μM, λex 480 nm): 20 fold | emission change with ADP and AMP ([4]; other nucleotides, aqueous solution with 1% DMSO): negligible changes | solubility in common organic solvents (Solubility): soluble | solubility in water (Solubility): insoluble | emission intensity enhancement ([3]; Hg^2+ 2.0 mM, luminogen 20 μM, pH 7.4 HEPES, 1% DMSO, λex 480 nm): 80 fold | emission change with other metal ions ([3]; Zn, Ni, Co, Cd, Cu, Mn, Ca, Fe, Mg, Ag, Pd ions 2.0 mM): negligible changes | detection amount of Hg^2+ ([3]; solid-state film, aqueous Hg^2+ 5 μL): 1 µM

CC[n+]1c(/C=C/c2ccc(C(=C(c3ccccc3)c3ccccc3)c3ccccc3)cc2)sc2ccccc21 [TPEBe-PF6]
solubility in common organic solvents (Solubility): soluble | solubility in water (Solubility): insoluble; also recorded: not soluble

C[n+]1ccc(/C=C/c2ccc(C(=C(c3ccccc3)c3ccccc3)c3ccccc3)cc2)cc1 [TPEPy-PF6]
solubility in water (Solubility): not soluble | mitochondria staining: position, shape and amounts compared with MitoTracker Red ([5]; 5 μM with MitoTracker Red 100 nM, 37° C.): the same as for MitoTracker Red | toxicity to living cells (cell morphology) ([5]; 5 μM): low toxicity | luminescence intensity remaining relative to initial value (HeLa cells): ~70%

From US9109155B2, “Heterocycle-functionalized luminogens exhibiting aggregation-induced emission” (THE HONG KONG UNIVERSITY OF SCIENCE AND TECHNOLOGY, priority 2013, dated 2015)
